From patent US20110015162A1, “15,16-Methylene-17-hydroxy-19-nor-21-carboxylic acid-steroid Y-lactone derivative, use thereof and medicinal products containing the derivative” (Bayer Schering Pharma Aktiengesellschaft, priority 2007, published 2011)

Assays:
progesterone receptor = target: T1, progesterone receptor (Homo sapiens, UniProt P06401); assay: Progesterone receptor binding test; settings: CF 1 = affinity of progesterone; CF >1 lower affinity, <1 higher affinity
T1 construct: made in house; host or cells: Hi5 insect cells (cytosol)
T1 sequence (P06401 1-933): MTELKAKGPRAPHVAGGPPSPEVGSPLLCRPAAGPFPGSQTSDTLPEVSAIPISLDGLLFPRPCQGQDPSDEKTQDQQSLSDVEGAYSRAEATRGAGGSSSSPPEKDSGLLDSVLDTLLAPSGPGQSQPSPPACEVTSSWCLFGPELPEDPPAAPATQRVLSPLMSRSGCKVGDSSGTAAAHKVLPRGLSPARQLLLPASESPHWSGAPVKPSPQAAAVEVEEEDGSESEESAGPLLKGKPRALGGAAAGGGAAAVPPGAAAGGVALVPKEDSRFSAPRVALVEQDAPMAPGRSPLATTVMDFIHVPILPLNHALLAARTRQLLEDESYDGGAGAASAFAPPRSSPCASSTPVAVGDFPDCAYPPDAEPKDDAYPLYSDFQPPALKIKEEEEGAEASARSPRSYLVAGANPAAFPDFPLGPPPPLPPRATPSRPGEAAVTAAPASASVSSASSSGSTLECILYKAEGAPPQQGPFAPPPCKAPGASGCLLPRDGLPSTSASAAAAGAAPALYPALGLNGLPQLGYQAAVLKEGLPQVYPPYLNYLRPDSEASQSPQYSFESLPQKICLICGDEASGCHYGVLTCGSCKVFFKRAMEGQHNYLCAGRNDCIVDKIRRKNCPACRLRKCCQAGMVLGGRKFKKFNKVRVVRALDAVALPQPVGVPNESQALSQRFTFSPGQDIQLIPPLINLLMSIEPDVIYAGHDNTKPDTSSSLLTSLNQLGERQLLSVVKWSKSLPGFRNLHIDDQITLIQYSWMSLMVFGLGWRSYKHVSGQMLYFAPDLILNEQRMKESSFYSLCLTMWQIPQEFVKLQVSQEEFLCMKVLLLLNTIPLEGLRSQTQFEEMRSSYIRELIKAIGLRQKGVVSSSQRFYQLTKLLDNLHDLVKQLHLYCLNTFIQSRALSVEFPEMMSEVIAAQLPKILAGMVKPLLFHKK
Description: 1. Progesterone Receptor Binding Test:
(§1) Using cytosol from progesterone receptor-expressing insect cells (Hi5), competitive binding to the progesterone receptor was determined from the ability to displace ^3H-progesterone as reference substance from the receptor.

[1] = target: T2, fusion protein from the PR-ligand-binding domain and a Gal4-transactivation domain (Homo sapiens, UniProt P06401); assay: Progestational action by transactivation test (CHO K1 reporter cells); assay type: cell-based; settings: CHO-K1, 16 h, read-out: Progesterone receptor Agonism efficacy
T2 construct: expressed in transfected cells; host or cells: CHO K1 cells, stably transfected
T2 sequence (P04386 1-147 partner limits assumed, one chain of several): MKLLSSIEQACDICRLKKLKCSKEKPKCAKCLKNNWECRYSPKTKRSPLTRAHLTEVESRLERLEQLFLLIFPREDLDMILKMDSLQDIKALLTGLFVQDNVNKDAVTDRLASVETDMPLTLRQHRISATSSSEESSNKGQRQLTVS
Description: 4. Determination of Progestational Action by Means of Transactivation Tests:
The culture medium used for culture of the cells used for the assay was DMEM (Dulbecco's Modified Eagle Medium: […] glucose; PAA, #E15-009) with 10% FCS (Biochrom, S0115, batch #615B), 4 mM L-glutamine, 1% penicillin/streptomycin, 1 mg/ml G418 and 0.5 μg/ml puromycin.
Reporter cell lines (CHO K1 cells stably transfected with a fusion protein from the PR-ligand-binding domain and a Gal4-transactivation domain and a reporter construct, which contained luciferase under the control of a Gal4-responsive promoter) were seeded at a density of 4×10^4 cells per well in white, opaque tissue culture plates each with 96 wells (PerkinElmer, #P12-106-017) and kept in culture medium with 3% DCC-FCS (serum treated with activated charcoal to remove interfering components contained in the serum). The test compounds were added eight hours later, and the cells were incubated with the compounds for 16 hours. The tests were carried out in triplicate. At the end of incubation the medium containing the effector was removed and replaced with lysis buffer. After luciferase assay substrate (Promega, #E1501) had been added, the 96-well plates were then put in a microplate luminometer (Pherastar, BMG Labtech), and the luminescence was measured. The IC50 values were evaluated using software for calculating dose-effect relations.

[2] = target: T3, mineralocorticoid receptor (Homo sapiens, UniProt P08235); assay: Mineralocorticoid receptor binding test; set-up: made in house; host or cells: Hi5 insect cells (cytosol); settings: reference substance 3H-aldosterone, cytosol from MR-expressing insect cells (Hi5)
T3 sequence (P08235 1-984): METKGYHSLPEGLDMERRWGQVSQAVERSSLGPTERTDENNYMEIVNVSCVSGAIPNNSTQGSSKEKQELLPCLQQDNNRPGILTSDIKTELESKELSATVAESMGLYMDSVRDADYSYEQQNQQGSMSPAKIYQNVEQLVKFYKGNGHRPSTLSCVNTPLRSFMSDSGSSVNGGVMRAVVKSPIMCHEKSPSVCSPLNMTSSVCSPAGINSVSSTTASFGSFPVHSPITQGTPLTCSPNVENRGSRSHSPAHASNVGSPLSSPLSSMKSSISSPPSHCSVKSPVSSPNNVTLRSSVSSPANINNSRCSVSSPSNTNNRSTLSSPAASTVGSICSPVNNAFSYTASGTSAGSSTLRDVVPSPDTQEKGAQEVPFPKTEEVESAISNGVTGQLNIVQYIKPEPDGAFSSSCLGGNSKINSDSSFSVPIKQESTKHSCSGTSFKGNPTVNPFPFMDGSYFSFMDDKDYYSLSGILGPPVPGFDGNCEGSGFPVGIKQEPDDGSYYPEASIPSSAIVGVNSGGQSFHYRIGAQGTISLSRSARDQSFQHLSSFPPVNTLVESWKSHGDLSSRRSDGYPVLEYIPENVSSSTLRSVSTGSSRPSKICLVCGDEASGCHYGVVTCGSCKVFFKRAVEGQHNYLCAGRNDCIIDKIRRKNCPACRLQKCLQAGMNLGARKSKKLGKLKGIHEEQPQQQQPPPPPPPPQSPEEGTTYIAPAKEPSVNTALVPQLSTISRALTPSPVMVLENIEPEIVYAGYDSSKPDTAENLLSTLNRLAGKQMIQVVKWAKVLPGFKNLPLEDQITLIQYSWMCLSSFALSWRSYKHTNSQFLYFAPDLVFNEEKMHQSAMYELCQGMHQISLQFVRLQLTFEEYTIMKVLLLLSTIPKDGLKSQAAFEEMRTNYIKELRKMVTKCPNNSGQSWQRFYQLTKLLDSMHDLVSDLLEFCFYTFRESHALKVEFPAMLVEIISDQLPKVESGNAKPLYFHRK
Description: as §1
2. Mineralocorticoid Receptor Binding Test:
The test was carried out as in 1, with the following modifications: cytosol from mineralocorticoid receptor-expressing insect cells (Hi5) was used, and the reference substance was ^3H-aldosterone.

[3] = target: T3, mineralocorticoid receptor; assay: Antimineralocorticoid action by transactivation test (MDCK reporter cells); assay type: cell-based; set-up: expressed in transfected cells; host or cells: MDCK cells;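 for Emax: percent inhibition of the aldosterone-stimulated reporter signal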
Description: The test compounds were added eight hours later, and the cells were incubated with the compounds for 16 hours. The tests were carried out in triplicate. At the end of incubation the medium containing the effector was removed and replaced with lysis buffer. After luciferase assay substrate (Promega, #E1501) had been added, the 96-well plates were then put in a microplate luminometer (Pherastar, BMG Labtech), and the luminescence was measured. The IC50 values were evaluated using software for calculating dose-effect relations.
5. Determination of Antimineralocorticoid Action by Means of Transactivation Tests:
The antimineralocorticoid activity of the test substances was determined as for the transactivation tests described above.
The following modifications were undertaken: In this case reporter cell lines were used (MDCK cells) that express the human mineralocorticoid receptor, and transiently contain a reporter construct that contains luciferase under the control of a steroid hormone-responsive promoter.

For `C[C@]12CCC(=O)C=C1[C@@H]1C[C@@H]1[C@H]1[C@@H]3[C@@H]4C[C@@H]4[C@@]4(CCC(=O)O4)[C@@]3(C)CC[C@@H]12` [A, 6β, 7β;15β,16β-dimethylene-3-oxo-17-pregn-4-ene-21,17β-carbolactone, reference compound], the “Progesterone receptor (PR) Competition factor” value (progesterone receptor) was 2.7, the Emax [1] was 72.2% and the “Mineralocorticoid receptor (MR) Competition factor” value [2] was 0.5. The IC50 ([3]; MDCK cells, with 1 nM aldosterone, read-out: Mineralocorticoid receptor Antagonism IC50) was 3.3 nM and the Emax ([3]; MDCK, read-out: Mineralocorticoid receptor Antagonism efficacy) was 64.1%.
